Results from patent US20110081662A1, “SCREENING METHODS FOR BONE MORPHOGENETIC MIMETICS” (THRASOS THERAPEUTICS, INC., priority 2000, published 2011).
Bridges are numbered along the chain shown (N, C = ends). Where no end group is shown, it is not given here.

Experiments:
ECD of daf-4 receptor = biological target: T1, ECD of daf-4 receptor (Caenorhabditis elegans, UniProt P50488); experiment: Type II receptor-based HTS rapid solid-phase assay; format: binding, C. elegans; conditions: ECD immobilized on PVDF membrane, 18 h, room temperature
T1 construct: 1 includes additional portions on the N and C terminus; made in house; host or cells: transfected DHFR(-) CHO cell line PJ511.9.8, purified from conditioned medium
T1 sequence (P50488 with tags, fused parts or gaps): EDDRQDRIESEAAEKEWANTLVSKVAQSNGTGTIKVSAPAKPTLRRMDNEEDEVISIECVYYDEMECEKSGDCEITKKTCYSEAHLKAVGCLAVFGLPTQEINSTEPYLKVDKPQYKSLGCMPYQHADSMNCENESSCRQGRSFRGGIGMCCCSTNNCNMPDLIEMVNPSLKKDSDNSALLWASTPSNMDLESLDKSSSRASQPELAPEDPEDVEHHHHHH
Description: Preparation of type II Receptor ECD: Highly purified extracellular domain (ECD) of the type II receptor daf-4 was used in this assay. The ECD of the daf-4 receptor was cloned and vectors (pCMV5 expression vectors, daf-4 sequence including the mammalian consensus start site and the hexa-histidine sequence tag) are constructed for the expression of this molecule in mammalian cells. In this construct, the ECD has been linked to a hexa-Histadine sequence tag for subsequent purification and detection. The transfected DHFR(−) CHO cell line PJ511.9.8 has been used for the daf-4 expression as outlined below. This cloning method can also be utilized with other bone morphogenetic proteins.
Purification of daf-4 ECD: A purification protocol to process large volumes of conditioned media (3.5 L/week) was developed. The procedure involves initial isolation of daf-4 ECD by using Talon (Pharmacia Tech.) Immobilized metal affinity column. As daf-4 ECD protein is linked to a hexa-His sequence, the protein is bound to the metal affinity column and is subsequently eluted by imidazoic ([…]) containing buffer. […] The purified preparation was analyzed by reversed phase HPLC. […]
HTS assay procedure: BMP-7 binding activity was determined by a rapid solid-phase assay using ^125I-labeled BMP-7 as ligand and highly purified ECD of daf-4 as type II receptor. […]

[1] = system: BMP-7 induced and basal alkaline phosphatase activity in ROS cells (rat Osteosarcoma 17/2.8); experiment: ROS cell based alkaline phosphatase assay
Protocol: ROS Cell Based Alkaline Phosphatase Assays: BMP-7 and test agents that bind BMP-7 receptors were analyzed by in vitro bioassay. This assay defines the role of these test agents at the receptor-binding site. It is believed that some of the test agents can effectively interact with receptors and inhibit BMP-7 induced target cell responsiveness, thereby acting as functional antagonists. Alternatively, these agents may mimic BMP-7 functions inducing alkaline phosphatase activity in ROS cells, thus acting as functional agonists. An assay procedure as described by Maliakal, J. C., et al., Growth Factors 11, 227-234, (1994) determined the biological activities of BMP-7 peptides. In a typical experiment, rat Osteosarcoma (17/2.8) cells were plated in 96 well plates (3.0×10^4 cells/well) and incubated overnight at 37 C in 5-6% CO2 incubator. Next day, the plates were examined to make sure that cells are healthy & confluent. Cells were treated with increasing concentrations of BMP-7 standard (1-10,000 ng/ml) or test agents (0.02-200 μM) or appropriate concentrations of test agent alone or with BMP-7 standard prepared in medium containing 1% FBS and incubated for 2 days at 37 C in 5-6% CO2 incubator. The cellular content of alkaline phosphatase activity was determined by the method of Reddi, A. H. & Huggins, C. B. Proc. Natl. Acad. Sci. USA 69, 1601-1605 (1972). Enzyme estimations were routinely carried out in 96 well plates. Following removal of culture medium, cells were washed with pre-warmed PBS (150 μl) and further incubated in 100 μl of pre-warmed 1% Triton X-100 for 30 minutes at 37 C. Plates were centrifuged for 10 minutes at full speed, and recovered samples (each 15 μl) were assayed for enzyme activity by adding 90 μl p-nitrophenyl phosphate (Sigma, St. Louis, Mo.) as a substrate in 0.05 M glycine-NaOH buffer, pH 9.3 and incubating for 20 minutes at 37 C. The reaction was stopped by adding 75 ul of 0.2 N NaOH/well and absorbance at 405/490 nm is measured on a Dynatech MR 700 plate reader (Dynatech Laboratories, U.K.). Results are expressed as concentration of peptide/small molecule inhibitor (with antagonist activity) required to give 50% inhibition of maximum response to BMP-7 standard. The activities of test agents that stimulate cell responsiveness (with agonist activity), are expressed relative to BMP-7 standard.

bone formation = experiment: Subcutaneous implantation assay in rodents (bone formation); format: in vivo; conditions: rat, subcutaneous implant, day 14, data not shown
Protocol: Subcutaneous implantation assay in rodents: This assay is based on the ability of BMP-7 to induce bone formation in the rat. […] Briefly, 1.2 mg of bovine bone matrix (collagen carrier) was added to BMP-7 or test peptide or small molecule or BMP-7 and test peptide in 200 μl of 50% acetonitrile, […]. A minimum of 6 animals per group were used. The day of implantation is designated as day 0 of the assay. Implants were removed on day 14 for evaluation. Bone-forming activity in the implants was monitored by the calcium content essentially as described by Reddi, A. H. & Huggins, C. B. (1972) PNAS USA 69, 1601-1605. For histology, implants were fixed in Bouin's solution, embedded in JB4 plastic medium, cut into 1 um sections, and stained by toluidine blue. […] (Data not shown)

daf-4 ECD = biological target: T2, daf-4 ECD (Caenorhabditis elegans, UniProt P50488); experiment: BMP binding to purified daf-4 ECD (ligand blot, Scatchard analysis); set-up: species or system C. elegans
T2 construct: 1 includes additional portions on the N and C terminus; made in house; host or cells: transfected DHFR(-) CHO cell line PJ511.9.8, purified from conditioned medium
T2 sequence (P50488 with tags, fused parts or gaps): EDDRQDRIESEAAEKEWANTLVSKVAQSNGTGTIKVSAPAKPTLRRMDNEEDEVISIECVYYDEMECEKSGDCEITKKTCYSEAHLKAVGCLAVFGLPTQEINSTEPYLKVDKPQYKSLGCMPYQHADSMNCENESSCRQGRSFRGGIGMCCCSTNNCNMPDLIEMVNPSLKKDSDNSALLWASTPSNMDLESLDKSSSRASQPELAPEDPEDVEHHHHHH
Description: A novel ligand-blot technique was developed to evaluate the binding of BMP-7 to the purified daf-4 ECD.

Molecule | inhibition of 125I-labeled BMP-7 binding to the ECD of daf-4 receptor (ECD of daf-4 receptor) [%] | percent increase in BMP-7 response (relative to the absence of peptide) ([1]; peptide 0.01 μM, sub-maximal BMP-7, P<0.001) [%] | percent increase in BMP-7 response (relative to the absence of peptide) ([1]; peptide 0.1 μM, sub-maximal BMP-7, P=0.007) [%] | percent increase in BMP-7 response (relative to the absence of peptide) ([1]; peptide 1 μM, sub-maximal BMP-7, P=0.01) [%] | effect on basal cell responsiveness (basal alkaline phosphatase activity) ([1]; peptide alone) | behaviour of peptide on BMP-7 induced cell responsiveness ([1]; peptide together with BMP-7) | bone formation in implants (bone formation) | binding to extracellular domain of daf-4 (daf-4 ECD)
CYFDDSSNVICKKYRS, SEQ I.D NO. 9; 11 residue loop with 5 residue C-terminal extension (disulfide 1-11; listed as Homo sapiens) [Peptide F2-3] | 75 | 53 | 54 | 48 | no significant effect | agonistic | – | –
BMP-7: homodimeric glycoprotein of the TGF-β superfamily; unlabeled standard (protein) STGSKQRSQNRSKTPKNQEALRMANVAENSSSDQRQACKKHELYVSFRDLGWQDWIIAPEGYAAYYCEGECAFPLNSYMNATNHAIVQTLVHFINPETVPKPCCAPTQLNAISVLYFDDSSNVILKKYRNMVVRACGCH | 78 | – | – | – | – | – | induced bone formation | readily binds
